In patent US5068233A, “Synergistic combination of azelastine and theophylline or azelastine and α-mimetics” (Asta Pharma Aktiengesellschaft, priority 1987, dated 1991):
Structures can show the parent of a compound that is named as a salt.

System: isolated guinea pig ileum (histamine spasm)
Experiment: histamine spasm test in isolated guinea pig ileum (Magnus), % inhibition of histamine spasm
Parameters: antihistaminic activity (mean value), starting value / increase of antihistaminic activity (mean value): concentration or dose not given beside the values
Method: These trials were conducted in association with the histamine spasm test in isolated guinea pig ileum. Here, for example, the azelastine dosage (hydrochloride) is maintained constant and the dosage of theophylline or β-mimetic (for example reproterol) is changed and in each case intestinal spasm inhibition is determined as a % of uninhibited histamine spasm (Method of determining synergism according to Magnus).
Guinea pigs of both sexes having a mean weight of 400-600 g are stunned by a blow on the neck and exsanguinated. The lower part of the small intestine above the bottom 10 cm before the transition to the large intestine is dissected, flushed with cold Tyrode's solution and incubated in a refrigerator for 1 hour. 3-4 cm long sections are then cut and suspended in the immersion baths (Tyrode's solution^1) 37° C., carbogen gassing^2) under isotonic conditions, a tension of 2 g being applied. Following an adjustment time of 30 minutes the contraction in response to a standard spasmogen concentration of histamine (2×10^-7 mol/liter) is determined. […] The effects of the individual components and their combination are compared with one another.
1 Tyrode's solution: standardized, glucose-containing nutrient solution that has the same osmotic pressure as blood
2 Carbogen: gaseous mixture of 95% oxygen and 5% carbon dioxide.

SMILES: Cn1c(=O)c2c(ncn2CCCNCC(O)c2cc(O)cc(O)c2)n(C)c1=O (stereo not drawn) [reproterol, 7-{3[(β,3,5-trihydroxyphenethyl)-amino]propyl}-theophylline]
- antihistaminic activity (mean value), starting value (reproterol, mean value before addition of azelastine): 26%
- increase of antihistaminic activity (mean value) (reproterol, on addition of azelastine): 38%

SMILES: Cn1c(=O)c2[nH]cnc2n(C)c1=O [Theophylline]
- % inhibition (histamine 2 × 10^-10 mol/ml) (Table 1, Theophylline 10 μg/ml alone, group *, N = 8): 9.0 ± 12.8%
- % inhibition (histamine 2 × 10^-10 mol/ml) (Table 1, Theophylline 20 μg/ml alone, group **, N = 4): 25.0 ± 15.1%
- % inhibition (histamine 2 × 10^-10 mol/ml) (Table 1, Theophylline 40 μg/ml alone, group ***, N = 8): 39.6 ± 26.9%
- % inhibition (histamine 2 × 10^-10 mol/ml) (Table 1, Theophylline 60 μg/ml alone, group ****, N = 8): 20.6 ± 15.5%
- antihistaminic activity (mean value), starting value (theophylline, mean value before addition of azelastine): 24%
- increase of antihistaminic activity (mean value) (theophylline, upon addition of azelastine): 38%

SMILES: CN1CCCC(n2nc(Cc3ccc(Cl)cc3)c3ccccc3c2=O)CC1 (centres unmarked) [azelastine]
- increase of antihistaminic activity (mean value) (azelastine activity increased in the combination, partner not given): 26%
- antihistaminic activity (mean value), starting value (azelastine, mean value before increase): 36%

SMILES: Cn1c(=O)c2c(ncn2CCCNCC(O)c2cc(O)cc(O)c2)n(C)c1=O (centres unmarked) [Reproterol.HCl]
- % inhibition (histamine 2 × 10^-10 mol/ml) (Table 2, Reproterol.HCl 0.02 μg/ml alone, group *, N = 8): 14.5 ± 16.6%
- % inhibition (histamine 2 × 10^-10 mol/ml) (Table 2, Reproterol.HCl 0.04 μg/ml alone, group **, N = 8): 14.5 ± 18.1%
- % inhibition (histamine 2 × 10^-10 mol/ml) (Table 2, Reproterol.HCl 0.06 μg/ml alone, group ***, N = 8): 48.5 ± 21.3%

SMILES: CN1CCCC(n2nc(Cc3ccc(Cl)cc3)c3ccccc3c2=O)CC1 (centres unmarked) [Azelastine.HCl]
- % inhibition (histamine 2 × 10^-10 mol/ml) (Table 1, Azelastine.HCl 0.001 μg/ml alone, group ****, N = 8): 46.3 ± 34.6%
- % inhibition (histamine 2 × 10^-10 mol/ml) (Table 1, Azelastine.HCl 0.001 μg/ml alone, group ***, N = 8): 9.4 ± 12.4%
- % inhibition (histamine 2 × 10^-10 mol/ml) (Table 1, Azelastine.HCl 0.001 μg/ml alone, group **, N = 4): 49.3 ± 1.9%
- % inhibition (histamine 2 × 10^-10 mol/ml) (Table 1, Azelastine.HCl 0.001 μg/ml alone, group *, N = 8): 38.9 ± 19.9%
- % inhibition (histamine 2 × 10^-10 mol/ml) (Table 2, Azelastine.HCl 0.001 μg/ml alone, group ***, N = 8): 45.9 ± 21.1%
- % inhibition (histamine 2 × 10^-10 mol/ml) (Table 2, Azelastine.HCl 0.001 μg/ml alone, group **, N = 8): 26.6 ± 15.1%
- % inhibition (histamine 2 × 10^-10 mol/ml) (Table 2, Azelastine.HCl 0.001 μg/ml alone, group *, N = 8): 35.1 ± 25.7%
